The values that follow are results of earlier work, collected in patent US6159964A, “Vitronectin receptor antagonists” (SmithKline Beecham Corporation, priority 1999, dated 2000).

In this data set the test system is fibrinogen receptor. Particulars: template of WO 93/08174.

Regarding `N=C(N)c1ccc(NC(=O)c2ccc3c(c2)CN(CCc2ccccc2)C(=O)C(CC(=O)O)N3)cc1` (racemic) [(R,S)-7-[[[4-(aminoiminomethyl)phenyl]amino]carbonyl]-4-(2-phenylethyl)-1,3,4,5-tetrahydro-3-oxo-2H-1,4-benzodiazepine-2-acetic acid], the “fibrinogen antagonist activity (in words)” value is “potent and selective fibrinogen antagonist”.
